Test results taken from patent US20110319603A1, “METHOD FOR FLU[…] PROTEIN” (OSAKA UNIVERSITY, priority 2009, published 2011).

Legend:
PYP [1] = target: T1, PYP (Halorhodospira halophila, UniProt P16113); experiment: Fluorescent properties of FCTP (fluorescence and excitation spectra with and without PYP); details: 8 μM compound, Tris buffer pH 8.0, 37° C.
T1 construct: His tag (with enterokinase cleavage site) (N, cleaved yes); made in house; host or cells: E. coli BL21 (DE3), pET-21b(+) (pET-PYP)
T1 sequence (P16113 1-125): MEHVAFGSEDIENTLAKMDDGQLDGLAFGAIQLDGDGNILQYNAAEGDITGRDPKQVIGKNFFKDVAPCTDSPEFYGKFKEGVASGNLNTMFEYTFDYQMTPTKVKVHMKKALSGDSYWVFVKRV
Method: In order to examine the fluorescent properties of compound FCTP bound to the PYP, Tris buffer (20 mM Tris-HCl, 150 mM NaCl, 1 mM TCEP (pH 8.0)), the fluorescence and excitation spectra were measured at 37° C.

PYP [2] = target: T1, PYP; experiment: Reaction of compound FCTP with PYP in HEK293T cell lysate, SDS-PAGE; assay type: binding
Method: In a HEK293T cell lysate dissolved in Tris buffer (20 mM Tris-HCl, 150 mM NaCl, 1 mM TCEP (pH 8.0)), 5 μM of PYP was reacted with 50 μM of compound FCTP at 37° C. for 30 minutes in the presence or absence of 10 mM MESNa. After completion of the reaction, it was analyzed by SDS-PAGE (20% acrylamide separation gel). […] On the other hand, the fluorescent band on the high molecular weight side disappeared upon addition of MESNa (10 mM), which was a type of thiol compound. It was confirmed that an addition of a certain amount of free thiol allowed labeling to be carried out specifically in the cell lysate.

[3] = tested on: PYP-TM expressed on HEK293T cells; experiment: Labeling reaction with FCTP in cultured cell (fluorescence microscopy); assay type: cell-based, Halorhodospira halophila; details: FCTP 20 μM, 30 minutes
Method: In order to express a PYP on the cell surface, a plasmid was prepared in which a gene PYP-TM obtained by fusing a PYP with the transmembrane domain of a platelet-derived growth factor receptor (PDGFR) was introduced into the multicloning site of pcDNA3.1, which is a mammalian expression vector. HEK293T cells were transfected with this plasmid by using lipofectamine 2000. After transfection with the plasmid, the HEK293T cells were allowed to stand at 37° C. for 36 hours and then washed with a phosphoric acid buffer (PBS). A culture medium containing FCTP (20 μM) was added thereto, which then was allowed to stand for 30 minutes. […] With the fluorescence microscope having an excitation wavelength of 488 nm, the cells were observed using a fluorescent filter of 510 to 550 nm.

PYP [4] = target: T1, PYP; experiment: Reaction between PYP and FCTP, analyzed by SDS-PAGE (CBB-stained and fluorescent image); assay type: binding
Method: In Tris buffer (20 mM Tris-HCl, 150 mM NaCl, 1 mM TCEP (pH 8.0)), 5 μM of PYP was reacted with 12.5 μM of compound FCTP at 37° C. for 24 hours. After completion of the reaction, the result was analyzed by SDS-PAGE (20% acrylamide separation gel). […] With reference to FIG. 1(b), similarly in the fluorescent image, fluorescence was observed.

[5] = tested on: PYP-TM expressed on HEK293T cells; experiment: Labeling reaction with CATP in cultured cell, PYP-TM (fluorescence microscopy); assay type: cell-based, Halorhodospira halophila; details: CATP 5 μM, 30 minutes
Method: (§1) A plasmid was prepared in which a gene MBP-PYP obtained by fusing a maltose binding protein (MBP) with a PYP was introduced into the multicloning site of pcDNA3.1, which was a mammalian expression vector. Furthermore, in order to express a PYP on the cell surface, a plasmid was prepared in which a gene PYP-TM obtained by fusing a PYP with the transmembrane domain of a platelet-derived growth factor receptor (PDGFR) was introduced into the multicloning site of pcDNA3.1, which was a mammalian expression vector. HEK293T cells were transfected with these plasmids by using lipofectamine 2000. After transfection with the plasmids, the HEK293T cells were allowed to stand at 37° C. for 36 hours and then washed with a phosphoric acid buffer (PBS). A culture medium containing CATP (5 μM) was added thereto, which then was allowed to stand for 30 minutes.

[6] = tested on: MBP-PYP expressed in HEK293T cells; experiment: Labeling reaction with CATP in cultured cell, MBP-PYP (fluorescence microscopy); assay type: cell-based, Halorhodospira halophila; details: CATP 5 μM, 30 minutes
Method: as §1

O=C(NCc1cn(COCCOCCOCc2cc(O)cc3oc(=O)c(C(=O)Sc4ccccc4)cc23)nn1)c1ccc(C(=O)O)c(-c2c3ccc(=O)cc-3oc3cc(O)ccc23)c1 [FCTP]
fluorescence intensity of compound in the presence of PYP (PYP [1]; 5 μM PYP, time-dependent): increased in the presence of the PYP with the passage of time
fluorescence intensity of compound alone (PYP [1]; no PYP, excitation at 500 nm): very weak
fluorescent labeling of PYP in cell lysate (PYP [2]; 5 μM PYP, 50 μM compound, 37° C., 30 minutes): fluorescence was observed in the vicinity of the PYP band
fluorescent band in the high molecular weight range (non-specific labeling) in cell lysate (PYP [2]; absence of MESNa): another fluorescent band was observed in the high molecular weight range
fluorescent band on the high molecular weight side in cell lysate (PYP [2]; addition of MESNa (10 mM)): disappeared
fluorescent labeling in cells where PYP-TM was not expressed [3]: neither fluorescent labeling with FCTP nor that with CATP was observed
fluorescent labeling in PYP-TM expressed cells ([3]; excitation 488 nm): observed
labeling of the PYP (slowly migrating band, fluorescence on gel) (PYP [4]; 5 μM PYP, 12.5 μM compound, Tris buffer pH 8.0, 37° C., 24 hours): able to label the PYP

[N-]=[N+]=NCCOCCOCCOCc1cc(O)cc2oc(=O)c(C(=O)Sc3ccccc3)cc12 [CATP]
fluorescent labeling in cells where PYP-TM was not expressed [5]: neither fluorescent labeling with FCTP nor that with CATP was observed
fluorescent labeling in PYP-TM expressed cells ([5]; excitation 436 nm): observed
fluorescent labeling in cells in which MBP-PYP was not expressed [6]: not observed
fluorescent labeling in cells in which MBP-PYP was expressed ([6]; excitation 436 nm): observed
thioester bond between the PYP and compound upon addition of DTT (PYP [4]; DTT (100 mM) added after labeling): hydrolyzed by a large excess of DTT
